Values of other authors in patent US20240065977A1, “MYDRIATIC AND ANTI-MUSCARINIC AGENT COMPOSITION FOR OPHTHALMIC USE” (SENTISS PHARMA PRIVATE LIMITED, priority 2020, published 2024).
Read-outs that look alike come from different tables or passages of the source.

Tested on: pupil

| Compound | Mydriasis Peak (Concentration 0.5%-3%) [min] | Mydriasis Recovery (Concentration 0.5%-3%) [days] | duration of action (pupillary dilatation) [days] | onset of action (pupillary dilatation) [min] | Mydriasis Peak (Concentration 2%-5%) [min] | Mydriasis Recovery (Concentration 2%-5%) [days] |
| --- | --- | --- | --- | --- | --- | --- |
| CN1[C@@H]2CC[C@H]1C[C@@H](OC(=O)C(CO)c1ccccc1)C2 (stereo partly drawn) [Atropine] | 30 to 40 | 7 to 12 | ≥ 7 | 40 | – | – |
| CN1[C@@H]2CC[C@H]1C[C@@H](OC(=O)C(O)c1ccccc1)C2 (stereo partly drawn) [Homatropine] | – | – | – | – | 40 to 60 | 1 to 3 |
